Earlier results in paper PMC4499460 (The Journal of organic chemistry, 2015).

Conditions: in 1 N H2SO4

ϕf of quantum yield reference: 0.54
Compound: C=C[C@H]1CN2CC[C@H]1C[C@H]2[C@H](O)c1ccnc2ccc(OC)cc12.O=S(=O)(O)O [quinine bisulfate]
